# Measured values: US20230073946A1, “AFFINITY PEPTIDE […] A[…] PROTECTION OF PROTEINS FROM OXIDATION” (ARIZONA BOARD OF REGENTS ON BEHALF OF THE UNIVERSITY OF …, priority 2020, published 2023)
# Entries after “also recorded” stand apart in the source; their conditions may differ.
# Columns and labels:
# sugen/hypoxic PAH model = details: cited from earlier work
# HPASMCs [1] = test: Seahorse mitostress assay (OCR); assay type: cell-based, human; details: SIN-1 treatment
# Description: (§1) For the glycostress Seahorse assay, human pulmonary artery smooth muscle cells (HPASMCs) were seeded in a 24 well Seahorse cell culture microplate at 50000/well and kept overnight to form a monolayer. On the day of experiment, the media was aspirated and cells were incubated at 37° C. in a non-CO2 incubator for 1 hour with 0.5 mL XF base medium (cat #102353-100, Agilent, Santa Clara, Calif.) supplemented with 2 mM glutamine. Glucose (56 μL, 100 mM), Oligomycin (62 μL, 100 μM) and 2-deoxyglucose (69 μL, 500 mM) was added to the flux pack wells (cat #102342-100, Agilent, Santa Clara, Calif.). ECAR (extracellular acidification rate) was then measured using Seahorse Bioscience XFe24 extracellular flux analyzer (Agilent, Santa Clara, Calif.) according to the manufacturer's protocol. For the mitostress assay, cells were prepared like the glycostress assay with the exception that the XF base incubation media was supplemented with pyruvate (1 mM), glutamine (2 mM) and glucose (10 mM). Oligomycin (56 μL, 10 μM), FCCP (62 μL, 10 μM) and Rotenone+Antimycin-A (69 μL, 5 μM) were added to the flux pack wells. OCR (oxygen consumption rate) was then identified according to the manufacturer's protocol. Data was normalized to cell number as determined by flow cytometry. All the chemicals used for these experiments, unless specified, were procured from Sigma-Aldrich.
# PDH = test: Pyruvate dehydrogenase assay in lung tissue; assay type: in vivo, rat; details: SU2 rats, NP treatment
# Description: Lung tissue was lysed using RIPA buffer and the lysate was used for the PDH activity. PDH activity was measured with PDH Activity Assay Kit (MAK183, Sigma-Aldrich) per the manufacturer protocol.
# sugen/hypoxia PAH model [2] = test: Metabolic intermediates analysis of lung lysate (PCA); assay type: in vivo, rat; details: SU2+NP versus SU2
# Description: Data were acquired using the West Coast Metabolomics Center at UC Davis. Briefly, Restek corporation Rtx-5Sil MS column was used with helium mobile phase at temperature interval (50-330° C.) and flow-rate: 1 mL min-1. Injection volume was 0.5 μL at 50° C. ramped to 250° C. by 12° C. s-1. Oven temperature started at 50° C. for 1 min, then ramped at 20° C. min-1 to 330° C., and held constant for 5 min. Mass spectrometry analysis was done on a Leco Pegasus IV mass spectrometer with unit mass resolution at 17 spectra s-1 from 80-500 Da at −70 eV ionization energy and 1800 V detector voltage with a 230° C. transfer line and a 250° C. ion source. Raw data files were preprocessed directly after data acquisition and stored as ChromaTOF-specific*.peg files, as generic*.txt result files and additionally as generic ANDI MS*.cdf files. ChromaTOF vs. 2.32 was used for data preprocessing without smoothing, 3s peak width, baseline subtraction just above the noise level, and automatic mass spectral deconvolution and peak detection at signal/noise levels of 5:1 throughout the chromatogram. Apex masses were reported for use in the BinBase algorithm. Result*.txt files were exported to a data server with absolute spectra intensities and further processed by a filtering algorithm implemented in the metabolomics BinBase database.
# Akt (Y350 nitration) = target: T1, Akt (Y350 nitration) (Homo sapiens, UniProt P31749); test: Sin-1 induced Akt nitration assay in HPAECs; assay type: cell-based; details: 1 μM NP pretreatment 30 min, washed, then SIN-1 1 mM 1 hour
# T1 construct: endogenous in cells; host or cells: HPAEC (human pulmonary artery endothelial cells)
# T1 sequence (P31749 whole entry): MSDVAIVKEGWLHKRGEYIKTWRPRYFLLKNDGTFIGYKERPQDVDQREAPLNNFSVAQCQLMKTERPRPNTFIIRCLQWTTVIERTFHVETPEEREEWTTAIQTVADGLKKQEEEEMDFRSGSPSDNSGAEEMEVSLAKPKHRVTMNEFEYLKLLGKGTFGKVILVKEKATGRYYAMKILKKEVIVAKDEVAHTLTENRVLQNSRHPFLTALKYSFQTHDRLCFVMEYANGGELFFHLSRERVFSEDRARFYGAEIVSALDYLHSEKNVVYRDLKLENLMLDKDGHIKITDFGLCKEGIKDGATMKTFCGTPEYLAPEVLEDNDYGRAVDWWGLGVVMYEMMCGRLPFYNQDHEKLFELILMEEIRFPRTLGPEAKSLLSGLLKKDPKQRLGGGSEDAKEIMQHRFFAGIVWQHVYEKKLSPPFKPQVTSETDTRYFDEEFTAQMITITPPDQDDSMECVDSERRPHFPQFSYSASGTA
# Description: Human pulmonary artery endothelial cells (HPAECs) were cultured using an endothelium media specific for HPAEC with 10% FBS. Cells were used from passages 3-6. All experiments were performed on 80-90% confluent cells. Akt nitration was induced by treatment with 3-Morpholinosyndnomine (SIN-1) (1 mM) for 1 hour. NP pretreatment groups were treated with 1 μM NP for 30 min, and then cells were washed in PBS and treated with SIN-1 for 1 hour. All treatments were accompanied by including controls with the corresponding vehicle. After treatment, the cells were washed in PBS and lysed in a RIPA buffer containing protease and phosphatase inhibitor cocktail.
# For an analysis of the total lung protein, lung tissues were lysed as previously described. Briefly, 20-40 mg of lung tissue (human/rat) was lysed in Permeabilization Buffer mixed with protease and phosphatase inhibitor cocktails using a Fisher Homogenizer 850. […] The protein concentration was measured using the BCA protein assay kit (Thermo Scientific, Rockford, Ill.). […] Since the quantification of the Akt nitration is not fully established by mass spectrometry, a common method was used by newly developed antibodies for the quantification of specific Y350 nitration of Akt. The reactive bands were visualized by chemiluminescent ChemiDoc™ MP Imaging System (Bio-Rad Laboratories Inc., Hercules, Calif.) and analyzed using Image Lab™ software. […]
# sugen/hypoxia PAH model [3] = test: Western blot of metabolic proteins in lung tissue, sugen/hypoxia PAH model; assay type: in vivo, rat; details: SU2 rats
# Description: (§2) For an analysis of the total lung protein, lung tissues were lysed as previously described. Briefly, 20-40 mg of lung tissue (human/rat) was lysed in Permeabilization Buffer mixed with protease and phosphatase inhibitor cocktails using a Fisher Homogenizer 850. The homogenate was centrifuged at 10,000 g for 10 min, and the supernatant was carefully collected. Cell membrane and cytosolic fractions were isolated using FractionPREP™ cell fraction kit (Biovision, Milpitas, Calif.) according to manufacturer's instruction. The protein concentration was measured using the BCA protein assay kit (Thermo Scientific, Rockford, Ill.). Samples were incubated with 6×Laemmli sample buffer (Boston Bioproducts Inc., Ashland, Mass.), for 5 min at 95° C., loaded on the 4-20% SDS-PAGE Mini-PROTEAN TGX Stain-Free™ gels (Bio-Rad Laboratories Inc., Hercules, Calif.) and separated by electrophoresis. Protein bands were transferred using Trans-Blot Turbo transferring system (Bio-Rad Laboratories Inc.) and then blocked with 5% bovine serum albumin in Tris-buffered saline. Membranes were probed using antibodies against Glut 4 (07-1404) from Millipore, pyruvate carboxylase (PC) (Ab229267) & peroxisome proliferator-activated receptor gamma coactivator 1-alpha (PGC-1α) (Ab191838) from Abcam, pyruvate dehydrogenase (PDH) (45-6600) from Invitrogen, phospho Akt (Ser 473) (4060S), Akt (9272S), hexokinase 1 (HK1) (C35C4), glyceraldehyde-3 phosphate dehydrogenase (GAPDH) (2118S), lactate dehydrogenase-A (LDHA) (2012S), phospho glycogen synthase kinase (GSK) 3 β (Ser9) (9336S), GSK3 β(9315S) and glucose 6-phosphate dehydrogenase (G6PD) (8866S) from Cell Signaling Technology. Mouse monoclonal anti-nitrotyrosine antibodies were obtained from Calbiochem, La Jolla, Calif. (487923). Akt Y350 NO2 antibody obtained as a custom-made antibody against Akt1-nitro (341-353) and the sequence was CGRLPF-nitroY-NQDHEK (SEQ ID NO: 2). Two peptides were developed with and without Y350 nitration. The antibody developed against nitrated peptide cleaned using non-nitrated peptide (Akt1 (341-353): […], SEQ ID NO: 3) to remove nonspecific antibodies. Affinity purification was done using large reusable affinity purification columns against the unmodified and nitrated peptides. […] Since the quantification of the Akt nitration is not fully established by mass spectrometry, a common method was used by newly developed antibodies for the quantification of specific Y350 nitration of Akt. The reactive bands were visualized by chemiluminescent ChemiDoc™ MP Imaging System (Bio-Rad Laboratories Inc., Hercules, Calif.) and analyzed using Image Lab™ software. The protein loading was normalized per total sample protein as fold control using stain free gels as previously described. This normalization is equal to housekeeping genes normalization and rigorously evaluated by Bio-Rad company (http://www.bio-rad.com/en-us/applications-technologies/stain-free-imaging-technology?ID=NZ0G1815) and others in comparison with beta-actin normalization.
# HPASMCs [4] = test: Seahorse glycostress assay (ECAR); assay type: cell-based, human; details: SIN-1 treatment
# Description: as §1
# LDH = details: SU2 rats, NP treatment, lung tissue
# Description: Female Sprague Dawley rats (200-250 g) obtained from Charles River (Wilmington, Mass., USA) were used in this study. […] Generally, PAH was induced by a single injection of SU5416 (50 mg/kg) subcutaneously, followed by 3 weeks of hypoxia (10% 02) and 2 weeks of normoxia. This study included five animal groups: control group; SU1, rats were analyzed after 1 week of SU5416 and hypoxia treatment; SU2, rats were analyzed after 2 weeks of SU5416 and hypoxia treatment; SUS, rats were analyzed after 5 weeks of SU5416 treatment (3 weeks of hypoxia with a following 2 weeks of normoxia); and SU2+NP peptide treatment 0.1 mg/kg/day intravenous (i.v.) injection started with SU5416 treatment for two-weeks.
# LDH activity in lung tissue was assessed by Lactate Dehydrogenase Activity Colorimetric Assay Kit (K726, BioVision Inc. Calif., USA) according to manufacturer's instruction. All values were normalized with respect to protein concentrations as determined by the Pierce™ BCA Protein Assay Kit (Thermo Scientific, Rockford, Ill.).
# sugen/hypoxia PAH model [5] = test: Histological analysis of pulmonary arteries (EVG, Ki-67), sugen/hypoxia PAH model; assay type: in vivo, rat; details: SU2 rats, NP 0.1 mg/kg/day i.v. two-weeks
# Text: For the morphometric assessment of pulmonary vessels 5-μm tissue sections were dewaxed and stained with elastic fibers—Verhoeffs van gieson (EVG) by HistoWiz Inc. (Brooklyn, N.Y.) using standard operating procedures and a fully automated workflow system. Ten transversely sectioned pulmonary arteries (diameter<300 μm) within each category per each animal (N=6 per group) were randomly selected from the whole-slide 40X digitized image Aperio AT2 scanner (Leica Biosystems, Ill.). Immunohistochemistry was performed using standard protocols. The sections were deparaffinized and incubated with primary antibodies against Akt Y350 NO2 (1:100), and Ki67 (1:800) (ab15580 Abcam); Dab Rabbit H1 (pH 6) for 20 min. The morphometric analysis was done by an investigator by a blinded grouping fashion. The wall thickness of the pulmonary artery (PA) was measured using the publicly available software Fiji is just ImageJ (http://fiji.sc/Fiji; in the public domain).
# Akt [6] = test: Western blot of Akt nitration, phosphorylation and total nitration in lung lysate, sugen/hypoxia PAH model; assay type: in vivo, rat; details: SU2 rats, NP 0.1 mg/kg/day i.v. two-weeks
# Description: as §2, with “antibodies.” for “antibodies. Affinity purification was done using large reusable affinity purification columns against the unmodified and nitrated peptides.”, “The protein loading was normalized per total sample protein as fold control using stain free gels as previously described.” left out
# Akt [7] = target: T2, Akt (Rattus norvegicus, UniProt P47196); test: as above; assay type: in vivo; details: sugen/hypoxia rats two-weeks (SU2), NP 0.1 mg/kg/day i.v.
# T2 construct: nitro Akt, phospho Akt and total Akt expression in the lung lysate; from tissue; host or cells: rat lung (Sprague Dawley, sugen/hypoxia model)
# T2 sequence (P47196 whole entry): as the sequence (P31749 whole entry) above, with S2N, D46E, A50S, K112R, E117T, S137A, K389T, G410N, H415D counted along it
# Description: as §2, with “antibodies.” for “antibodies. Affinity purification was done using large reusable affinity purification columns against the unmodified and nitrated peptides.”, “The protein loading was normalized per total sample protein as fold control using stain free gels as previously described.” left out
# sugen/hypoxia PAH model [8] = test: Hemodynamic measurement (RVSP, Fulton index), sugen/hypoxia PAH model; assay type: in vivo, rat; details: SU2 rats, NP 0.1 mg/kg/day i.v. two-weeks
# Description: Animals were anesthetized with inactin 100 mg/kg intraperitoneally (i.p.) (T133, Sigma-Aldrich). A customized pressure transducer catheter (SPR-513, Millar Instruments, Houston, Tex.) was inserted into RV via the right jugular vein and advanced into the right ventricle to monitor right ventricular systolic pressure (RVSP) as described previously. Briefly, the pressure transducer catheter was connected to a Millar Transducer Control Unit TC-510 and PL3504 PowerLab 4/35 data acquisition system (AD Instruments, Colorado Springs, Colo.) to monitor RV pressure for 30-min. After this a tracheal catheter was connected to a ventilator system (Harvard Rodent Ventilator-683; Harvard Apparatus, South Natick, Mass.), the thorax was opened, and the lungs flushed with 0.9% sodium chloride through the right ventricle (RV). Heart and lungs were collected from animals; the RV free wall was separated from the left ventricle (LV), and the septum (5). Fulton index (RV/LV+S ratio) as a parameter of RV hypertrophy was calculated. The total wet lung weight was measured and normalized by the body weight of the animal. The left lung was fixed in formalin and embedded in paraffin for histological examination. The other portion of the lung was stored at −80° C. for further biochemical studies.
molecule,measurement,setting,value
CC1(C)CC(O)CC(C)(C)N1[O] [TEMPOL],preventing pulmonary arterial remodeling,sugen/hypoxic PAH model; recently reported,not effective
same,right ventricular hypertrophy and pulmonary arterial remodeling,"sugen/hypoxic PAH model; sugen/hypoxic PAH model, reported",failed to attenuate
"NP: peptide Ser-Arg-IIe-Arg-Ser (SEQ ID NO: 1) with nitroxide (3-Carboxy-2,2,5,5-tetramethyl pyrroline-1-yloxy) covalently attached to the free N-terminal amine",basal respiration rate,HPASMCs [1],without affecting
same,mitochondrial oxidative phosphorylation rate (OCR),HPASMCs [1],upregulated the oxidative phosphorylation rate to control level
same,PDH activity,PDH,increased
same,metabolites significantly restored by treatment,sugen/hypoxia PAH model [2],30 metabolites
same,reduction of Akt nitration (Y350),Akt (Y350 nitration),55%
same,pyruvate carboxylase (PC) expression,sugen/hypoxia PAH model [3]; NP 0.1 mg/kg/day i.v. two-weeks,decreased
same,G6PD expression,sugen/hypoxia PAH model [3]; NP treatment,upregulated significantly
same,GSK3β expression,sugen/hypoxia PAH model [3]; NP treatment,reversed
same,Glut4 translocation to membrane (membrane/cytosol ratio),sugen/hypoxia PAH model [3]; NP treatment,attenuated
same,LDHA expression,sugen/hypoxia PAH model [3]; NP treatment,attenuating
same,PDH expression,sugen/hypoxia PAH model [3]; NP treatment,significantly increased
same,PGC1α expression,sugen/hypoxia PAH model [3]; NP treatment,significantly reduced
same,Glycolytic capacity,HPASMCs [4],attenuated
same,"glycolysis (glycolytic rate, ECAR)",HPASMCs [4],attenuated this back to control level
same,LDHA activity,LDH,attenuating
same,"EVG staining: perivascular fibrosis, vasoconstriction and proliferation in pulmonary arteries",sugen/hypoxia PAH model [5],significantly attenuated
same,vascular remodeling and cellular proliferation (Ki-67 staining),sugen/hypoxia PAH model [5],effectively prevented
same,Phosphorylation of Akt at Ser-473,Akt [6]; lung lysate,does not affect
same,total Akt expression,Akt [6]; lung lysate,did not change
same,total nitration in lungs,Akt [6]; selectivity toward Akt nitration,did not significantly alter
same,nitroAkt modification in the lung tissue,Akt [7],significantly reduced; also recorded: remarkable reduction
same,"Fulton index (RV/LV+S), RV hypertrophy",sugen/hypoxia PAH model [8],markedly decreased; also recorded: reversed
same,right ventricular systolic pressure (RVSP),"sugen/hypoxia PAH model [8]; SU2 without NP 71.9±3.6, p<0.001",36.1±2.6
